Biological target: T1, human TRPA1 (Homo sapiens, UniProt O75762)
T1 construct: host or cells: human embryonic kidney-derived 293T cells, transient transfection with pcDNA3.1/zeo(+) plasmid
Experiment: Measurement of TRPA1 antagonist activity (intracellular calcium increase, FLIPR)
Type: cell-based
Conditions: 293T cells transfected with human TRPA1 expression plasmid, allylisothiocyanate 20 μM stimulation, calcium fluorescence, read-out: antagonism hTRPA1
Text: Measurement of TRPA1 Antagonist Activity
Human TRPA1 Expression Plasmid
As cDNA encoding human TRPA1 (GenBank accession No. […]), a commercially available product was purchased (manufactured by Kazusa DNA Research Institute, clone No.: pFN21AB7348, item No.: FHC07217). Using this as a template, full-length human TRPA1 gene was amplified using the primer sequences shown below, by reaction using DNA polymerase (manufactured by Stratagene, trade name: PfuUltra High-Fidelity DNA Polymerase).
A recognition site (underlined) of restriction enzyme HindIII was added to the 5′ side, and XbaI site (underlined) was added to the 3′ side, and GTT of the template sequence was changed to termination codon TAG (bold). The obtained double stranded DNA was enzyme-digested with HindIII and XbaI, and introduced into a multicloning site of expression plasmid pcDNA3.1/zeo(+) (manufactured by Invitrogen) to give a human TRPA1 expression plasmid.
Human embryonic kidney-derived 293T cells were cultured in Dulbecco's Modified Eagle Medium containing 10% fetal bovine serum, 10 unit penicillin, and 10 μg streptomycin, plated on a petri dish having a diameter of 10 cm at 3×10^6 cells, and cultured for 24 hr. A medium containing a reduced amount of serum (manufactured by Invitrogen, trade name: OPTI-MEM, 600 μL), a gene insertion reagent (manufactured by Mirus Bio, trade name: Mirus TransIT-293, 18 μL), and human TRPA1 expression plasmid (6 μg) were mixed, the total amount of the mixture was added to the cells on the petri dish to allow for gene transfer. The cells were recovered about 8 hr later, plated on a poly-D-lysine coated 384 well black/clear bottom plate at 7,500-12,000 cells/well, and cultured overnight.
Measurement of Intracellular Calcium Increase
The 384 well plate was recovered, and the medium was removed. A calcium-bonded fluorescent indicator (manufactured by Molecular Device, trade name: Calcium4 Assay Kit, 40 μL) dissolved in assay buffer (1×HBSS, 20 mM HEPES, pH 7.2) was added, and the cells were stained in a 37° C. incubator for 1 hr. The cells were taken out at room temperature and left standing for 15 min or more. A test substance (10 μL) was added by a 384 well type dispenser, and the mixture was incubated at room temperature for 10 min. Then, allylisothiocyanate (12.5 μL) at a final concentration of 20 μM was added by a fluorescence imaging plate reader (manufactured by Molecular Device, FLIPR), and changes in the relative fluorescence intensity were measured for 5 min.
Test Substance Preparation
The test substance was dissolved in dimethyl sulfoxide and serially diluted with an assay buffer containing 0.1% bovine serum albumin (1×HBSS, 20 mM HEPES, pH 7.2) to a 5-fold concentration of the evaluation concentration. Allylisothiocyanate, which is a known TRPA1 activator, was dissolved in dimethyl sulfoxide to 100 mM, and further diluted 5-fold (100 μM) of the final concentration, like the test substance.
Calculation of Antagonist Activity
Under the test substance-free conditions, the maximum variation range of the fluorescence intensity before and after allylisothiocyanate stimulation was defined to be 100% activity rate, and the variation range before and after buffer stimulation was defined as 0% activity rate. The activity rate on addition of the test substance was determined, and the numerical value obtained by subtracting the activity rate from 100 was defined to be an inhibitory rate. IC50, which is the concentration of the test substance necessary for reaching the 50% inhibitory rate, was calculated from the sigmoid approximate curve by a spreadsheet software Excel-Fit.

T1 sequence (O75762 whole entry): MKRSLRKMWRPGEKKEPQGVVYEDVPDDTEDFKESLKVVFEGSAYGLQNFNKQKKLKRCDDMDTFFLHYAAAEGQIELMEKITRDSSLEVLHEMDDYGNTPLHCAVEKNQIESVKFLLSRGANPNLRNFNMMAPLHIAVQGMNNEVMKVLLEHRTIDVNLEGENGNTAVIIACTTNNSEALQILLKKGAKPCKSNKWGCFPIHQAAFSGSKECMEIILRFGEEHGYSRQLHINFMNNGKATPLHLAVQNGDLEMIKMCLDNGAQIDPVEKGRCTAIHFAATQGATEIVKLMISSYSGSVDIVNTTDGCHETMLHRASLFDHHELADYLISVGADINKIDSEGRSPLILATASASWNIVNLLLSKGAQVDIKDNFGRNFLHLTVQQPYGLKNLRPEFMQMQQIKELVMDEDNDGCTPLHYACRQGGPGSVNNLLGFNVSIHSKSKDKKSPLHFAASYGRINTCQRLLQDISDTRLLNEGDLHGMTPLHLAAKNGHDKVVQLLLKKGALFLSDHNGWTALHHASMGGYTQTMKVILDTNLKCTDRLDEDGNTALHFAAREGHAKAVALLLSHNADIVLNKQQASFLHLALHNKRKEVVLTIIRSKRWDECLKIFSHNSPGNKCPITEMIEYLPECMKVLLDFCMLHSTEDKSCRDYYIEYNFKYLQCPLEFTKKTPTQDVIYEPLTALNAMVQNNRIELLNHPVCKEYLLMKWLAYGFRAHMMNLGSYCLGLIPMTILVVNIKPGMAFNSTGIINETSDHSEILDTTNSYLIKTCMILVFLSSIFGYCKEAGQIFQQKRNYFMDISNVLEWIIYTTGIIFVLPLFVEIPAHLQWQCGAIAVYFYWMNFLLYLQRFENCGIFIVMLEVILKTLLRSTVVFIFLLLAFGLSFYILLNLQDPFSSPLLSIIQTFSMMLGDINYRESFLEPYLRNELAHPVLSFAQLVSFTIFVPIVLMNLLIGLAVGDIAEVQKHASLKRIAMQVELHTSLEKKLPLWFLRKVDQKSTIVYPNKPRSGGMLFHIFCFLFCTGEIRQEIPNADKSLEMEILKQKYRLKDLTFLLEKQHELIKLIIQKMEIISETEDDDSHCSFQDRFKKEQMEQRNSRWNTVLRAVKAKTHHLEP

Row | Compound | IC50 [nM]
1 | O=C(NCc1nc(-c2cccc(C(F)(F)F)c2)cs1)[C@@H]1C=CCN1S(=O)(=O)c1ccc(Cl)s1 [compound 21, (2S)-1-(5-chlorothiophene-2-sulfonyl)-N-({4-[3-(trifluoromethyl)phenyl]-thiazol-2-yl}methyl)-3,4-didehydropyrrolidine-2-carboxamide] | 710
2 | O=C(NCc1nc(-c2cccc(F)c2)cs1)[C@@H]1CCCN1S(=O)(=O)c1ccc(Cl)s1 [compound 7, (2S)-1-(5-chlorothiophene-2-sulfonyl)-N-{[4-(3-fluorophenyl)thiazol-2-yl]methyl}pyrrolidine-2-carboxamide] | 430
3 | Cc1cc(CNC(=O)[C@@H]2CCCN2S(=O)(=O)c2ccc(Cl)s2)nn1-c1ccc(Cl)cc1 [compound 17, (2S)-1-(5-chlorothiophene-2-sulfonyl)-N-{[1-(4-chlorophenyl)-5-methylpyrazol-3-yl]methyl)pyrrolidine-2-carboxamide] | 4440
4 | C[C@@]1(C(=O)NCc2nc(-c3ccc(OC(F)(F)F)cc3)cs2)CCCN1S(=O)(=O)c1ccc(Cl)s1 [compound 34, (2S)-1-(5-chlorothiophene-2-sulfonyl)-N-({4-[4-(trifluoromethoxy)phenyl]-thiazol-2-yl}methyl)-2-methylpyrrolidine-2-carboxamide] | 890
5 | C[C@@]1(C(=O)NCc2nc(-c3ccc(C(F)(F)F)cc3)cs2)CCCN1S(=O)(=O)c1ccc(Cl)s1 [compound 33, (2S)-1-(5-chlorothiophene-2-sulfonyl)-N-({4-[4-(trifluoromethyl)phenyl]-thiazol-2-yl}methyl)-2-methylpyrrolidine-2-carboxamide] | 740
6 | Cc1sc(CNC(=O)[C@@H]2C=CCN2S(=O)(=O)c2ccc(Cl)s2)nc1-c1ccc(C(F)(F)F)cc1 [compound 23, (2S)-1-(5-chlorothiophene-2-sulfonyl)-N-({5-methyl-4-[4-(trifluoromethyl)phenyl]-thiazol-2-yl}methyl)-3,4-didehydropyrrolidine-2-carboxamide] | 140
7 | CC1(C)SCN(S(=O)(=O)c2ccc(Cl)s2)[C@@H]1C(=O)NCc1nc(-c2ccc(C(F)(F)F)cc2)cs1 [compound 30, (4R)-3-(5-chlorothiophene-2 sulfonyl)-N-({4-[4-(trifluoromethyl)phenyl]-thiazol-2-yl}methyl)-5,5-dimethyl-1,3-thiazolidine-4 carboxamide] | 520
8 | O=C(NCc1nc(-c2ccc(OC(F)(F)F)cc2)co1)[C@@H]1CCCN1S(=O)(=O)c1ccc(Cl)s1 [compound 13, (2S)-1-(5-chlorothiophene-2-sulfonyl)-N-({4-[4-(trifluoromethoxy)phenyl]-oxazol-2-yl}methyl)-pyrrolidine-2-carboxamide] | 120
9 | C[C@H](NC(=O)[C@]1(C)CCCN1S(=O)(=O)c1ccc(Cl)s1)c1nc(-c2ccc(OC(F)(F)F)cc2)cs1 [compound 35, (2S)-1-(5-chlorothiophene-2-sulfonyl)-N-[(1S)-1-{4-[4-(trifluoromethoxy)phenyl]-thiazol-2-yl}ethyl]-2-methylpyrrolidine-2-carboxamide] | 2500
10 | C[C@H](NC(=O)[C@@H]1C=CCN1S(=O)(=O)c1ccc(Cl)s1)c1nc(-c2ccc(C(F)(F)F)cc2)cs1 [compound 24, (2S)-1-(5-chlorothiophene-2-sulfonyl)-N-[(1S)-1-{4-[4 (trifluoromethyl)phenyl]-thiazol-2-yl)ethyl]-3,4-didehydropyrrolidine-2-carboxamide] | 470
11 | O=C(NCc1ccc(-c2ccc(OC(F)(F)F)cc2)s1)[C@@H]1CCCN1S(=O)(=O)c1ccc(Cl)s1 [compound 44, (2S)-1-(5-chlorothiophene-2-sulfonyl)-N-({5-[4-(trifluoro-methoxy)phenyl]-2-thienyl}methyl)pyrrolidine-2-carboxamide] | 120

Continued, values first:

Row | IC50 [nM] | Compound
12 | 340 | O=C(NCc1nc(-c2ccc(C(F)(F)F)cc2)cs1)[C@@H]1CCCN1S(=O)(=O)c1ccsc1 [compound 49, (2S)-1-(3-thienylsulfonyl)-N-({4-[4-(trifluoromethyl)-phenyl)thiazol-2-yl}methyl)-pyrrolidine-2-carboxamide]
13 | 300 | O=C(NCc1nc(-c2ccc(C(F)(F)F)cc2)co1)[C@@H]1CCCN1S(=O)(=O)c1ccc(Cl)s1 [compound 12, (2S)-1-(5-chlorothiophene-2-sulfonyl)-N-({4-(4-(trifluoromethyl)phenyl]-oxazol-2-yl}methyl)-pyrrolidine-2-carboxamide]
14 | 1000 | O=C(NCc1nc(-c2ccc(C(F)(F)F)cc2)cs1)[C@@H]1CCCN1S(=O)(=O)c1ccc(F)cc1 [compound 37]
15 | 200 | O=C(NCc1nc(-c2ccc(C(F)(F)F)cc2)cs1)[C@@H]1CCCN1S(=O)(=O)c1ccc(Br)s1 [compound 39, (2S)-1-(5-bromothiophene-2-sulfonyl)-N-({4-[4-(trifluoromethyl)phenyl]thiazol-2-yl}methyl)pyrrolidine-2-carboxamide]
16 | 5840 | O=C(NCc1nc(-c2ccc(C(F)(F)F)cc2)c[nH]1)[C@@H]1CCCN1S(=O)(=O)c1ccc(Cl)s1 [compound 16, (2S)-1-(5-chlorothiophene-2-sulfonyl)-N-({4-[4-(trifluoromethyl)phenyl]-imidazol-2-yl}methyl)-pyrrolidine-2-carboxamide]
17 | 320 | C[C@H](NC(=O)[C@@H]1CCCN1S(=O)(=O)c1ccc(Cl)s1)c1nc(-c2ccc(C(F)(F)F)cc2)cs1 [compound 10, (2S)-1-(5-chlorothiophene-2-sulfonyl)-N-[(1S)-1-{4-[4-(trifluoromethyl)phenyl]-thiazol-2-yl}ethyl]-pyrrolidine-2-carboxamide]
18 | 110 | Cc1sc(-c2ccc(C(F)(F)F)cc2)nc1CNC(=O)[C@@H]1CCCN1S(=O)(=O)c1ccc(Cl)s1 [compound 45, (2S)-1-(5-chlorothiophene-2-sulfonyl)-N-({5-methyl-2-[4-(trifluoromethyl)phenyl]-thiazol-4-yl}methyl)-pyrrolidine-2-carboxamide]
19 | 760 | O=C(NCc1nc(-c2ccccc2)cs1)[C@@H]1CCCN1S(=O)(=O)c1ccc(Cl)s1 [compound 4, (2S)-1-(5-chlorothiophene-2-sulfonyl)-N-{(4-phenylthiazol-2-yl)methyl}pyrrolidine-2-carboxamide]
20 | 840 | O=C(NCc1nc(-c2cccc(C(F)(F)F)c2)cs1)[C@@H]1CCCN1S(=O)(=O)c1ccc(Cl)s1 [compound 6, (2S)-1-(5-chlorothiophene-2-sulfonyl)-N-({4-[3-(trifluoromethyl)phenyl]-thiazol-2-yl}methyl)-pyrrolidine-2-carboxamide]
21 | 200 | O=C(NCc1csc(-c2ccc(C(F)(F)F)cc2)n1)[C@@H]1CCCN1S(=O)(=O)c1ccc(Cl)s1 [compound 14, (2S)-1-(5-chlorothiophene-2-sulfonyl)-N-({2-[4-(trifluoromethyl)phenyl]-thiazol-4-yl}methyl)-pyrrolidine-2-carboxamide]
22 | 1790 | O=C(NCc1nc(-c2ccc(C(F)(F)F)cc2)cs1)[C@@H]1CCCN1S(=O)(=O)c1cccs1 [compound 36, (2S)-1-(thiophene-2-sulfonyl)-N-({4-[4-(trifluoromethyl)-phenyl]thiazol-2-yl}methyl)pyrrolidine-2-carboxamide]

— patent publication US9562043B2 (EA Pharma Co., Ltd., priority 2012, dated 2017)
